Experimental data taken from ChEMBL document CHEMBL1128806, “Phosphodiesterase type IV (PDE IV) inhibition. Synthesis and evaluation of a series of 1,3,4-trisubstituted pyrrolidines” (Bioorg Med Chem Lett, 1995).

Biological target: T1, 3',5'-cyclic-AMP phosphodiesterase 4B (Homo sapiens, UniProt Q07343)
Assay: Inhibition of rolipram binding to Phosphodiesterase 4B

T1 sequence (Q07343 whole entry): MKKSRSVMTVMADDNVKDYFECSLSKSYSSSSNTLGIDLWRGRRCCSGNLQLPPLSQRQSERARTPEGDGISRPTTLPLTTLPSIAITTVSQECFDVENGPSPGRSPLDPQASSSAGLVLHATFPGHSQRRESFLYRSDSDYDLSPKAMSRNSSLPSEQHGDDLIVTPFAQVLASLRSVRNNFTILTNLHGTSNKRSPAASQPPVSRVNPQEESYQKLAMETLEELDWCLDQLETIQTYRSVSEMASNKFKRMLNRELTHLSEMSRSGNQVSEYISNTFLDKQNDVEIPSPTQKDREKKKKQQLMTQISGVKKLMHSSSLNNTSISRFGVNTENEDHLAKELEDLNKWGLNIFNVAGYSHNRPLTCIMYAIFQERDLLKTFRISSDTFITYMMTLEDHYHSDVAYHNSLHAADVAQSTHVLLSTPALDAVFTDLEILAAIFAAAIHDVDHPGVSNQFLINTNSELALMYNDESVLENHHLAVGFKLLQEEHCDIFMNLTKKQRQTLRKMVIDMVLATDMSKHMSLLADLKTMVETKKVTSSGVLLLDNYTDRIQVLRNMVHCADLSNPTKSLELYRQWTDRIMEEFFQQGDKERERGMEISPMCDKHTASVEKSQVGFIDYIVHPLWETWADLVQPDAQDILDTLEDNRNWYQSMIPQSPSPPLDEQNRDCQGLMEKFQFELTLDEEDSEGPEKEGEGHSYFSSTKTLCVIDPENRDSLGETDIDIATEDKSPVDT

Row | IC50 [µM] | SMILES
1 | 0.32 | COC(=O)N1C[C@@H](C(C)=O)[C@H](c2ccc(OC)c(OC3CCCC3)c2)C1

Biological target: T1, 3',5'-cyclic-AMP phosphodiesterase 4B
Assay: Ability to inhibit the catalytic activity of human Phosphodiesterase 4B (PDE IVB)

Row | Ki [µM] | SMILES
2 | 0.03 | COC(=O)[C@@H]1CN(C(=O)OC(C)(C)C)C[C@H]1c1ccc(OC)c(OC2CCCC2)c1
3 | 1.13 | CCC(=O)N1C[C@@H](C(=O)OC)[C@H](c2ccc(OC)c(OC3CCCC3)c2)C1
4 | 14.4 | COC(=O)N1C[C@@H](NC(=O)OC(C)(C)C)[C@H](c2ccc(OC)c(OC3CCCC3)c2)C1
5 | 2.29 | COC(=O)N1C[C@@H](C(=O)OC(C)C)[C@H](c2ccc(OC)c(OC3CCCC3)c2)C1
6 | 1.47 | COc1ccc([C@@H]2CN(C(=O)OCc3ccccc3)C[C@H]2NS(C)(=O)=O)cc1OC1CCCC1
7 | 0.29 | COc1ccc([C@@H]2CN(C(=O)OCc3ccccc3)C[C@H]2NC(=O)OC(C)(C)C)cc1OC1CCCC1
8 | 1.88 | COC(=O)N1C[C@@H](C(=O)O)[C@H](c2ccc(OC)c(OC3CCCC3)c2)C1
9 | 0.16 | COC(=O)[C@@H]1CN(C(=O)OC)C[C@H]1c1ccc(OC)c(OC2CCCC2)c1
10 | 0.06 | COC(=O)N1C[C@@H]([N+](=O)[O-])[C@H](c2ccc(OC)c(OC3CCCC3)c2)C1
11 | 0.35 | CCC(=O)[C@@H]1CN(C(=O)OC)C[C@H]1c1ccc(OC)c(OC2CCCC2)c1
12 | 1.57 | COC(=O)N1C[C@@H](C(N)=O)[C@H](c2ccc(OC)c(OC3CCCC3)c2)C1
13 | 0.38 | COC(=O)[C@@H]1CN(C(N)=S)C[C@H]1c1ccc(OC)c(OC2CCCC2)c1
14 | 1.57 | COc1ccc([C@@H]2CN(C(=O)OC(C)(C)C)C[C@H]2NC(=O)OC(C)(C)C)cc1OC1CCCC1
15 | 0.81 | COC(=O)[C@@H]1CN(C=O)C[C@H]1c1ccc(OC)c(OC2CCCC2)c1
16 | 0.19 | COc1ccc([C@@H]2CN(C(=O)OC(C)(C)C)C[C@H]2C(N)=O)cc1OC1CCCC1
17 | 0.08 | COC[C@@H]1CN(C(=O)OC(C)(C)C)C[C@H]1c1ccc(OC)c(OC2CCCC2)c1
18 | 4.63 | COC(=O)N1C[C@@H](C(=O)OC(C)(C)C)[C@H](c2ccc(OC)c(OC3CCCC3)c2)C1

The remaining lines, values behind:

Row | SMILES | Ki [µM]
19 | COc1ccc([C@@H]2CN(C(=O)OCc3ccccc3)C[C@H]2NS(=O)(=O)c2ccccc2)cc1OC1CCCC1 | 4.42
20 | COC(=O)[C@@H]1CN(C(=O)OC(C)(C)C)C[C@H]1c1ccc(OC)c(OCCCOc2ccccc2)c1 | 0.24
21 | COC(=O)N1C[C@@H](C#N)[C@H](c2ccc(OC)c(OC3CCCC3)c2)C1 | 0.08
22 | COC(=O)N1C[C@@H](C(=O)c2ccccc2)[C@H](c2ccc(OC)c(OC3CCCC3)c2)C1 | 6.03
23 | COc1ccc([C@@H]2CN(C(=O)OC(C)(C)C)C[C@H]2CO)cc1OC1CCCC1 | 0.05
24 | COC(=O)[C@@H]1CN(C(=O)OC(C)C)C[C@H]1c1ccc(OC)c(OC2CCCC2)c1 | 0.04
25 | COC(=O)N1C[C@@H](C(C)=O)[C@H](c2ccc(OC)c(OC3CCCC3)c2)C1 | 0.03
26 | COC(=O)[C@@H]1CN(C(=O)OCc2ccccc2)C[C@H]1c1ccc(OC)c(OC2CCCC2)c1 | 0.05
27 | COC(=O)[C@@H]1CN(C(=O)OC(C)(C)C)C[C@H]1c1ccc(OC)c(OC)c1 | 1.2
28 | CCOC(=O)[C@@H]1CN(C(=O)OC)C[C@H]1c1ccc(OC)c(OC2CCCC2)c1 | 0.55
29 | COC(=O)[C@@H]1CN(C(N)=O)C[C@H]1c1ccc(OC)c(OC2CCCC2)c1 | 1.48
30 | COc1ccc([C@@H]2CN(C(=O)OC(C)(C)C)C[C@H]2C(=O)O)cc1OC1CCCC1 | 0.15

Tested on: not listed separately
Assay: Inhibition of TNF-alpha secretion from LPS-stimulated human monocytes
Type: functional

Row | IC50 [µM] | SMILES
31 | 0.457 | COC(=O)N1C[C@@H](C(C)=O)[C@H](c2ccc(OC)c(OC3CCCC3)c2)C1
32 | 0.32 | COc1ccc(C2CNC(=O)C2)cc1OC1CCCC1 (configuration not stated) [ROLIPRAM]
